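Protocol summary: plate cells (96-well), add compound at 5 concentrations, incubate 48 h, interpolate endpoints linearly. Here, GI50 denotes the concentration required for 50% inhibition of growth. TGI: total growth inhibition.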
Legend:
Test in all cases: DTP human tumour cell line panel, 48 h; in the data active = GI50 below about 0.43 µM; inactive = the rest
[1] = test system: 786-0 renal
[2] = test system: A498 renal
[3] = test system: A549 NSCLC
[4] = test system: ACHN renal
[5] = test system: BT-549 breast
[6] = test system: CAKI-1 renal
[7] = test system: CCRF-CEM leukemia
[8] = test system: COLO 205 colon
[9] = test system: DU-145 prostate
[10] = test system: EKVX NSCLC
[11] = test system: HCC-2998 colon
[12] = test system: HCT-116 colon
[13] = test system: HCT-15 colon
[14] = test system: HOP-62 NSCLC
[15] = test system: HOP-92 NSCLC
[16] = test system: HS 578T breast
[17] = test system: HT29 colon
[18] = test system: IGROV1 ovarian
[19] = test system: K-562 leukemia
[20] = test system: KM12 colon
[21] = test system: LOX IMVI melanoma
[22] = test system: M14 melanoma
[23] = test system: MALME-3M melanoma
[24] = test system: MCF7 breast
[25] = test system: MDA-MB-231 breast
[26] = test system: MDA-MB-435
[27] = test system: MOLT-4 leukemia
[28] = test system: NCI-H226 lung
[29] = test system: NCI-H23 lung
[30] = test system: NCI-H460 lung
[31] = test system: NCI-H522 lung
[32] = test system: NCI/ADR-RES ovarian
[33] = test system: OVCAR-3 ovarian
[34] = test system: OVCAR-4 ovarian
[35] = test system: OVCAR-5 ovarian
[36] = test system: OVCAR-8 ovarian
[37] = test system: PC-3 prostate
[38] = test system: RPMI-8226 leukemia
[39] = test system: RXF 393 renal
[40] = test system: SF-268 CNS
[41] = test system: SF-295 CNS
[42] = test system: SF-539 CNS
[43] = test system: SK-MEL-2 melanoma
[44] = test system: SK-MEL-28 melanoma
[45] = test system: SK-MEL-5 melanoma
[46] = test system: SN12C renal
[47] = test system: SNB-19 CNS
[48] = test system: SW-620 colon
[49] = test system: T-47D breast
[50] = test system: TK-10 renal
[51] = test system: U251 CNS
[52] = test system: UACC-257 melanoma
[53] = test system: UACC-62 melanoma
[54] = test system: UO-31 renal

COc1ccc2c(c1)CCC1C2CCC2(C)C1CCC2(O)CNC(=O)CCCCC1CCSS1 (stereo not drawn)
57 µM: TGI [50]
23 µM: TGI [15]
79.6 µM: TGI [41]
9.48 µM: TGI [38]
51.1 µM: TGI [47]
inactive: GI50 [1] 17.7 µM | GI50 [2] 73.4 µM | GI50 [3] 5.73 µM | GI50 [4] 53.6 µM | GI50 [5] 19.3 µM | GI50 [6] 18.1 µM | GI50 [7] 1.59 µM | GI50 [8] 6.14 µM | GI50 [9] 46.3 µM | GI50 [10] 48 µM | GI50 [11] 2.13 µM | GI50 [12] 9.3 µM | GI50 [13] 3.56 µM | GI50 [14] 25 µM | GI50 [15] 4.9 µM | GI50 [16] 13.9 µM | GI50 [17] 2.28 µM | GI50 [18] 22.7 µM | GI50 [19] 2.63 µM | GI50 [20] 2.26 µM | GI50 [21] 4.37 µM | GI50 [22] 20.8 µM | GI50 [23] > 100 µM | GI50 [24] 10.3 µM | GI50 [25] 2.8 µM | GI50 [26] 7.83 µM | GI50 [27] 1.66 µM | GI50 [28] 13.3 µM | GI50 [29] 20.8 µM | GI50 [30] 3.25 µM | GI50 [31] 23.7 µM | GI50 [32] 7.28 µM | GI50 [33] 8.65 µM | GI50 [34] 6.92 µM | GI50 [35] > 100 µM | GI50 [36] 11.7 µM | GI50 [37] 5.91 µM | GI50 [38] 2.43 µM | GI50 [39] 11.7 µM | GI50 [40] 15.9 µM | GI50 [41] 19.4 µM | GI50 [42] 18.3 µM | GI50 [43] 33.2 µM | GI50 [44] 64.9 µM | GI50 [45] 7.15 µM | GI50 [46] 16.6 µM | GI50 [47] 18.1 µM | GI50 [48] 12.4 µM | GI50 [49] 3.27 µM | GI50 [50] 17.7 µM | GI50 [51] 15.2 µM | GI50 [52] 31.9 µM | GI50 [53] 13.9 µM | GI50 [54] 24.9 µM
64 µM: TGI [1]
> 100 µM: TGI [2] | TGI [3] | TGI [4] | TGI [8] | TGI [9] | TGI [10] | TGI [12] | TGI [13] | TGI [14] | TGI [16] | TGI [18] | TGI [19] | TGI [20] | TGI [21] | TGI [22] | TGI [23] | TGI [26] | TGI [27] | TGI [28] | TGI [29] | TGI [30] | TGI [31] | TGI [32] | TGI [35] | TGI [36] | TGI [37] | TGI [40] | TGI [43] | TGI [44] | TGI [45] | TGI [46] | TGI [48] | TGI [52] | TGI [54]
8.3 µM: TGI [25]
6.81 µM: TGI [17]
28.9 µM: TGI [49]
98.4 µM: TGI [5]
5.52 µM: TGI [11]
56.6 µM: TGI [51]
45.9 µM: TGI [34]
40.2 µM: TGI [6]
44 µM: TGI [39]
29.2 µM: TGI [33]
49.4 µM: TGI [53]
4.33 µM: TGI [7]
40.8 µM: TGI [24]
90.8 µM: TGI [42]

— PubChem BioAssay (NCI)
